Measurements reported in patent publication US20260070911A1, “INHIBITORS OF TAM RECEPTORS” (National Health Research Institutes, priority 2022, published 2026).

Key:
Type in all cases: biochemical
AXL = target: T1, AXL (Homo sapiens, UniProt P30530); test: AXL enzymatic assay (ADP-Glo); conditions: purified kinase, ATP 50 μM, read-out: AXL Enzymatic Inhibition (%)
T1 sequence (P30530 26-894): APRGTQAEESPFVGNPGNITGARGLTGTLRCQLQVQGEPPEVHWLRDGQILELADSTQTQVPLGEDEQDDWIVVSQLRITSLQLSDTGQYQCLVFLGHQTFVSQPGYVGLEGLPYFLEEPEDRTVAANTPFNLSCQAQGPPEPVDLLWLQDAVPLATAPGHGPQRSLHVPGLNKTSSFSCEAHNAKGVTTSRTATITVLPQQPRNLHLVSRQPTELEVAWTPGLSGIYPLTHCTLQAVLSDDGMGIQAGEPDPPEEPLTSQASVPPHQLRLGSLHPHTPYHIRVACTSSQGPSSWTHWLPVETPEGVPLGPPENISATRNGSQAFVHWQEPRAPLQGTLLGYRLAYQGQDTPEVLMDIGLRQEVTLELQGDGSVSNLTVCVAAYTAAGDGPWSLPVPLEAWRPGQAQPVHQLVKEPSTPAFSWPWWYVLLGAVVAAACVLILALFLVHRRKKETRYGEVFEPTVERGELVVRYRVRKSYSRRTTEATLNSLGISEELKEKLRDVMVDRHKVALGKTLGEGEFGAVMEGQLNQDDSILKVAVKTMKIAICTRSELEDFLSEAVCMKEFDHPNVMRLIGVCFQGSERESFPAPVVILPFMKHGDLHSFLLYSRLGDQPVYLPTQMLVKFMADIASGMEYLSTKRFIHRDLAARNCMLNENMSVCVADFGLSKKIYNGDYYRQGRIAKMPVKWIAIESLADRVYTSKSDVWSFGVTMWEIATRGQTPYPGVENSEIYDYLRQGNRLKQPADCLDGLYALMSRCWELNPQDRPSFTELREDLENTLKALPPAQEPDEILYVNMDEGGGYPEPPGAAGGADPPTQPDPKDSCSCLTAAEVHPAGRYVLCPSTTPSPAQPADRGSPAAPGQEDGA
Protocol: (§1) A purified kinase (AXL or MERTK) was incubated with a compound or DMSO (control) for 15 minutes in an assay buffer (25 mM Tri s pH 7.4, 10 mM MgCl2, 4 mM MnCl2, 2 mM DTT, 0.0100 BSA, 0.02% TritonX-100, 0.0100 Brij35 and 0.5 mM Na3VO4 for MERTK; and 40 mM Tri s pH 7.4, 20 mM MgCl2, 2 mM DTT, 0.01% BSA and 0.5 mM Na3VO4 for AXL). […] The mixture was incubated for 3 hours at 30° C. The luminescence was calculated to determine the kinase activity using a Kinase Glo assay kit for MERTK and an ADP-Glo Kinase Assay kit for AXL following the manufacture's instructions (Promega Corp., Madison, Wisconsin).
(§2) A study was conducted to compare exemplary compounds of formula (I) in inhibiting TAM activities, including MERTK, AXL, and TYRO3. An enzymatic assay was used in the study. A purified Kinase (i.e., MERTK, AXL, or TYRO3) was incubated with a compound or DMSO (control) for around 15 minutes in an assay buffer (25 mM Tris pH 7.4, 10 mM MgCl2, 4 mM MnCl2, 2 mM DTT, 0.01% BSA, 0.02% TritonX-100, 0.01% Brij35 and 0.5 mM Na3VO4 for MERTK; 40 mM Tris pH 7.4, 20 mM MgCl2, 2 mM DTT, 0.01% BSA and 0.5 mM Na3VO4 for AXL; and 25 mM Tris pH 7.4, 10 mM MgCl2, 4 mM MnCl2, 2 mM DTT, 0.01% BSA and 0.5 mM Na3VO4 for TYRO3). […] The mixture was incubated for 3 hours at 30° C. The luminescence was calculated to determine the kinase activity using a Kinase Glo assay kit for MERTK and an ADP-Glo Kinase assay kit for AXL and TYRO3 following the manufacture's instructions (Promega). Inhibition rates and half maximal inhibitory concentration (IC50) values were calculated. High percentage inhibition rates and low IC50 values are indicatives of high potency of the test compound.

MER/AXL = test: Dual MER/AXL inhibition (enzymatic); conditions: class for both MER and AXL
Protocol: as §1

MERTK = target: T2, MERTK (Homo sapiens, UniProt Q12866); test: MERTK enzymatic assay (Kinase Glo); conditions: purified kinase, ATP 12 μM, read-out: MER Enzymatic Inhibition (%)
T2 sequence (Q12866 21-999): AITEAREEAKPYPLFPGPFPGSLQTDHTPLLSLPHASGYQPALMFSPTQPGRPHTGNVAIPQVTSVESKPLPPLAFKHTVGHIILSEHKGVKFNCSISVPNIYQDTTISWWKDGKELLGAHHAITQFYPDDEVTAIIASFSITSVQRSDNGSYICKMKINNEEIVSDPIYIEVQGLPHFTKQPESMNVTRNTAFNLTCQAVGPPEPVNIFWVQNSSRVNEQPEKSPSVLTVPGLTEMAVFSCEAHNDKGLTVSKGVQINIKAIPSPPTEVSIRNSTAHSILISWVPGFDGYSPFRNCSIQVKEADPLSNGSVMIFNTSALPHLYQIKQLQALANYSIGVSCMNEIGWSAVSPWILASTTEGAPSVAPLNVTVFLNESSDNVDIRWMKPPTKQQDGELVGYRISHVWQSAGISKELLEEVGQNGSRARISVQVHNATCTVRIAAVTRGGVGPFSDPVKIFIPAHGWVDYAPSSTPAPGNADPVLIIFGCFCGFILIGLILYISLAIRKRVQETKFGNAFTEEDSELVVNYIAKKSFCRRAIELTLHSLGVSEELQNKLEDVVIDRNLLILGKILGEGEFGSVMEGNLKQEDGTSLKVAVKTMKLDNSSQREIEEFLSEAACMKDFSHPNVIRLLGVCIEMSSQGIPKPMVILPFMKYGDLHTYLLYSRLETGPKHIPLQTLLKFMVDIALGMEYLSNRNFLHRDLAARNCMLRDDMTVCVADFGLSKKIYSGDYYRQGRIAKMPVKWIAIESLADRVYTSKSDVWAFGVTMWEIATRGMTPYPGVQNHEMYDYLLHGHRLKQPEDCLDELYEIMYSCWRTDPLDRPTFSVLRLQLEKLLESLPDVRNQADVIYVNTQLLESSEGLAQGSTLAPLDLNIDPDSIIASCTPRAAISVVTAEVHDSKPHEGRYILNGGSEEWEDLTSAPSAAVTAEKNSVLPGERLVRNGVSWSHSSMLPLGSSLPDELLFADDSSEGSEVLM
Protocol: as §1, §2

| IC50 (AXL) [nM] | IC50 (MER/AXL) [nM] | IC50 (MERTK) [nM] | SMILES |
| --- | --- | --- | --- |
| 100 to 50000 | 100 to 50000 | 100 to 50000 | CC(=O)Nc1cccc(-c2c[nH]c3ncnc(Oc4ccc(NC(=O)c5cn(C)n(-c6ccc(F)cc6)c5=O)cc4)c23)c1 [Compound 125] |
| < 20 | 100 to 50000 | 100 to 50000 | Cn1cc(-c2oc3ncnc(Oc4ccc(NC(=O)c5cccn(-c6ccc(F)cc6)c5=O)cc4)c3c2-c2cccnc2)cn1 [Compound 31] |
| < 20 | 20 to 100 | 20 to 100 | Cn1cc(-c2oc3ncnc(Oc4ccc(NC(=O)c5cccn(-c6ccccc6)c5=O)cc4)c3c2-c2cccc(N)c2)cn1 [Compound 54] |
| < 20 | < 20 | < 20 | Cc1ccn(-c2ccc(F)cc2)c(=O)c1C(=O)Nc1ccc(Oc2ncnc3oc(-c4cnn(C)c4)c(-c4cccc(N)c4)c23)cc1 [Compound 71] |
| < 20 | 20 to 100 | 20 to 100 | CCOc1ccn(-c2ccc(F)cc2)c(=O)c1C(=O)Nc1ccc(Oc2ncnc3[nH]cc(-c4cccc(N)c4)c23)cc1 [Compound 1] |
| 20 to 100 | 20 to 100 | 20 to 100 | CC(=O)Nc1cccc(-c2c(-c3cnn(C)c3)oc3ncnc(Oc4ccc(NC(=O)c5cccn(-c6ccc(F)cc6)c5=O)nc4)c23)c1 [Compound 53] |
| 20 to 100 | 100 to 50000 | 100 to 50000 | CC(=O)Nc1cccc(-c2n[nH]c3ncnc(Oc4ccc(NC(=O)c5cccn(-c6ccc(F)cc6)c5=O)cc4)c23)c1 [Compound 35] |
| < 20 | 100 to 50000 | 100 to 50000 | O=C(Nc1ccc(Oc2ncnc3[nH]cc(C#Cc4ccccc4)c23)cc1)c1cccn(-c2ccc(F)cc2)c1=O [Compound 18] |
| < 20 | 20 to 100 | 20 to 100 | Cc1cc(F)ccc1-n1cccc(C(=O)Nc2ccc(Oc3ncnc4oc(-c5cnn(C)c5)c(-c5cccc(CN(C)C)c5)c34)cc2)c1=O [Compound 98] |
| 100 to 50000 | 100 to 50000 | 100 to 50000 | O=C(Nc1ccc(Oc2ncnc3[nH]c(-c4ccsc4)cc23)cc1)c1cccn(-c2ccc(F)cc2)c1=O [Compound 79] |
| 100 to 50000 | 100 to 50000 | 100 to 50000 | CC(=O)Nc1cccc(-c2c(-c3cnn(C)c3)oc3ncnc(Oc4ccc(NC(=O)c5cc(-c6ccc(F)cc6)on5)cc4)c23)c1 [Compound 116] |
| < 20 | 20 to 100 | 20 to 100 | Cn1cc(-c2cc3c(Oc4ccc(NC(=O)c5cccn(-c6ccc(F)cc6)c5=O)cc4)ncnc3[nH]2)cn1 [Compound 78] |
| 100 to 50000 | 100 to 50000 | 100 to 50000 | CN(C)Cc1ccccc1-c1c(-c2cnn(C)c2)oc2ncnc(Oc3ccc(NC(=O)c4cccn(-c5ccc(F)cc5)c4=O)cc3)c12 [Compound 91] |
| < 20 | < 20 | < 20 | CN(C)Cc1cccc(-c2c(-c3cnn(C)c3)oc3ncnc(Oc4ccc(NC(=O)c5cccn(-c6ccc(F)c(F)c6)c5=O)cc4)c23)c1 [Compound 95] |
| 100 to 50000 | 100 to 50000 | 100 to 50000 | C=CC(=O)Nc1cccc(-c2c(-c3cnn(C)c3)oc3ncnc(Oc4ccc(NC(=O)c5cccn(-c6ccc(F)cc6)c5=O)cc4)c23)c1 [Compound 12] |
| 100 to 50000 | 100 to 50000 | 100 to 50000 | CCOc1ccn(-c2ccc(F)cc2)c(=O)c1C(=O)Nc1ccc(Oc2ncnc3[nH]ccc23)cc1 [Compound 6] |
| 100 to 50000 | 100 to 50000 | 100 to 50000 | O=C(Nc1ccc(Nc2ncnc3[nH]cc(C#Cc4ccccc4)c23)cc1)c1cccn(-c2ccc(F)cc2)c1=O [Compound 13] |
| < 20 | 20 to 100 | 20 to 100 | Cn1cc(-c2oc3ncnc(Oc4ccc(NC(=O)c5cccn(-c6ccc(F)c(F)c6)c5=O)cc4)c3c2-c2cccc(N)c2)cn1 [Compound 94] |
| < 20 | 20 to 100 | 20 to 100 | Cn1cc(-c2oc3ncnc(Oc4ccc(NC(=O)c5cc6c(n(-c7ccc(F)cc7)c5=O)CCCC6=O)cc4)c3c2-c2cccc(N)c2)cn1 [Compound 68] |
| 100 to 50000 | 100 to 50000 | 100 to 50000 | Cn1cc(-c2oc3ncnc(Oc4ccc(NC(=O)c5cccn(C6CCCCC6)c5=O)cc4)c3c2-c2cccc(N)c2)cn1 [Compound 83] |
| < 20 | 100 to 50000 | 100 to 50000 | CC(=O)Nc1cccc(-c2c(-c3cnn(C)c3)oc3ncnc(Oc4ccc(NC(=O)c5cc6c(n(-c7ccccc7)c5=O)CCCC6=O)cc4)c23)c1 [Compound 62] |
| 100 to 50000 | 100 to 50000 | 100 to 50000 | CC(=O)Nc1cccc(-c2c(-c3cnn(C)c3)oc3ncnc(Oc4ccc(NC(=O)c5ccc(-c6ccc(F)cc6)o5)cc4)c23)c1 [Compound 118] |
| 100 to 50000 | 100 to 50000 | 100 to 50000 | CN(C(=O)c1cccn(-c2ccc(F)cc2)c1=O)c1ccc(Oc2ncnc3oc(-c4cnn(C)c4)c(-c4cccc(N(C)S(C)(=O)=O)c4)c23)cc1 [Compound 64] |
| < 20 | 100 to 50000 | 100 to 50000 | O=C(Nc1ccc(Oc2ncnc3[nH]cc(-c4ccccn4)c23)cc1)c1cccn(-c2ccc(F)cc2)c1=O [Compound 17] |
| 100 to 50000 | 100 to 50000 | 100 to 50000 | COc1nn(-c2ccc(C)cc2)cc1C(=O)Nc1ccc(Oc2ncnc3oc(-c4cnn(C)c4)c(-c4cccc(CN(C)C)c4)c23)cc1 [Compound 138] |
| 100 to 50000 | – | 20 to 100 | NCc1cccc(-c2c[nH]c3ncnc(Nc4ccc(NC(=O)c5cccn(-c6ccc(F)cc6)c5=O)cc4)c23)c1 [Compound 15] |

| SMILES | IC50 (AXL) [nM] | IC50 (MER/AXL) [nM] | IC50 (MERTK) [nM] |
| --- | --- | --- | --- |
| CN1CCN(c2ccc(-c3c(-c4cnn(C)c4)oc4ncnc(Oc5ccc(NC(=O)c6cccn(-c7ccc(F)cc7)c6=O)cc5)c34)cc2)CC1 [Compound 34] | < 20 | < 20 | < 20 |
